Assays:
[1] = biological target: T1, Prostaglandin G/H synthase 2 (Homo sapiens, UniProt P35354); format: cell-based, CHO whole
T1 sequence (P35354 whole entry): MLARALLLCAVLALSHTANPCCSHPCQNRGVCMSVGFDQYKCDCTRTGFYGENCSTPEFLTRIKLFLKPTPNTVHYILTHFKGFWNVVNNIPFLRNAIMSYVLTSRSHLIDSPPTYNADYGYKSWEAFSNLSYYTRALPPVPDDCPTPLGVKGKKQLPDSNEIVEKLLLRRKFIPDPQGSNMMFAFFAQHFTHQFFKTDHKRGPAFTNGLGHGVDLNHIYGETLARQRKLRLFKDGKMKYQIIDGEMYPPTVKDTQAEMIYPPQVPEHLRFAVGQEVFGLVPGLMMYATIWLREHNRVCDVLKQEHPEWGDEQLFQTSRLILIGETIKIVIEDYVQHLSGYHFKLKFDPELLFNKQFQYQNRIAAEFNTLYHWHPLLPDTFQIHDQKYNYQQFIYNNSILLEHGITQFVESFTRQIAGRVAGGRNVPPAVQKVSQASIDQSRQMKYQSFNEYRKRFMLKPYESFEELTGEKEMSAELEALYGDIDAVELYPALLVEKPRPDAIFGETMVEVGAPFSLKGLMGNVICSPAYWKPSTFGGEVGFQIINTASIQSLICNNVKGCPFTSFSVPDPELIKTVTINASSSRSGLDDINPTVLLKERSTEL
Description: Inhibition of Prostaglandin G/H synthase 2 in CHO whole cell assay

[2] = biological target: T2, Prostaglandin G/H synthase 1 (Homo sapiens, UniProt P23219); experiment: In vitro inhibitory concentration required against Cyclooxygenase-1 (COX-1) determined in human whole blood (HWB) assay; format: tissue-based
[3] = biological target: T1, Prostaglandin G/H synthase 2
Description: Inhibition of Prostaglandin G/H synthase 2 in human whole blood (HWB) assay

[4] = Oral bioavailability in rat; format: ADME, organism-based; settings: in vivo
Rattus norvegicus [5] = experiment: Compound was tested in vivo for its efficacy in the rat paw edema assay; format: functional
Rattus norvegicus [6] = experiment: Compound was tested in vivo for its efficacy in the rat pyresis assay; format: functional
[7] = biological target: T2, Prostaglandin G/H synthase 1
Description: Inhibition of Prostaglandin G/H synthase 1 in human whole blood (HWB) assay

[8] = Half-life in rats; format: ADME, organism-based; settings: rat, in vivo
[9] = Maximum concentration in rats at 1-2 hours; format: ADME, organism-based; settings: rat, in vivo
[10] = Maximum concentration in rats; format: ADME, organism-based; settings: rat, in vivo
[11] = Half life in rats; format: ADME, organism-based; settings: rat, in vivo
[12] = Half-life in rats was determined; format: ADME, organism-based; settings: rat, in vivo
Rattus norvegicus [13] = experiment: Compound was tested in vivo for its efficacy in the model of carrageenan-induced hyperalgesia in rats; format: functional; settings: read-out: ID50 (the source's name)
[14] = Half-life in rats with metabolic oxidation; format: ADME, organism-based; settings: rat, in vivo
[15] = Cmax in rats determined 6 hours after oral dosing of 20 mg/kg; format: ADME, organism-based; design: dose 20 mg/kg, route oral; settings: rat, in vivo

T2 sequence (P23219 whole entry): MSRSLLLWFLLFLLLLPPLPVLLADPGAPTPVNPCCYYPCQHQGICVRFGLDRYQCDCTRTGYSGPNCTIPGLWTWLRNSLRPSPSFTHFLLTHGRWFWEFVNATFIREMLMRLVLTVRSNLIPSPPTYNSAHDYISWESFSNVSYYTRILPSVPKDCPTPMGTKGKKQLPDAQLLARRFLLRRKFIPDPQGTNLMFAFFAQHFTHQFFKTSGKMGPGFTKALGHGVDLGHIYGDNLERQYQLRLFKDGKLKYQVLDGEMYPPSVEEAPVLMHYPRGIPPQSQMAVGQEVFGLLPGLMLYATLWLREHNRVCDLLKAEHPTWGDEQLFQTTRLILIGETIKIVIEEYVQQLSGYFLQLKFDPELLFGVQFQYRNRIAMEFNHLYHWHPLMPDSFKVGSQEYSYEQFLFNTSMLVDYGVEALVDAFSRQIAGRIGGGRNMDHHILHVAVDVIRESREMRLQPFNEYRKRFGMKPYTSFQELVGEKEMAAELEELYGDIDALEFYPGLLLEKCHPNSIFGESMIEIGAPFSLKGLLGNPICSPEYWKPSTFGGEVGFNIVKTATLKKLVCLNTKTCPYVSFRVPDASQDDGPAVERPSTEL

Row | Structure (SMILES) | IC50 [1] | IC50 [3] | bioavailability [4] | ED50 (Rattus norvegicus [5]) | ED50 (Rattus norvegicus [6]) | IC50 [7] | further results
1 | CS(=O)(=O)c1ccc(-c2cc(C(F)(F)F)cnc2Oc2ccccc2)cc1 | < 200 nM | < 400 nM | – | – | – | – | IC50 [2]: < 1240 nM
2 | CC(C)(O)COc1ncc(C(F)(F)F)cc1-c1ccc(S(C)(=O)=O)cc1 | < 200 nM | 1000 nM | > 75% | 1.9 mg/kg | 6.8 mg/kg | > 100000 nM | half-life [8]: > 12 h
3 | CS(=O)(=O)c1ccc(-c2cc(C(F)(F)F)cnc2OC(C(F)(F)F)C(F)(F)F)cc1 | < 200 nM | 500 nM | – | – | – | > 100000 nM | –
4 | CS(=O)(=O)c1ccc(-c2cc(C(F)(F)F)cnc2OCC2(O)CCCC2)cc1 | – | – | > 75% | 1.8 mg/kg | 2.2 mg/kg | 83000 nM | half-life [8]: ≤ 4 h; Cmax [9]: 9 µM
5 | CS(=O)(=O)c1ccc(-c2cc(C(F)(F)F)cnc2OCc2ccc(Cl)cc2)cc1 | < 200 nM | > 33000 nM | – | – | – | > 100000 nM | –
6 | CCC(O)(CC)[C@H](C)Oc1ncc(C(F)(F)F)cc1-c1ccc(S(C)(=O)=O)cc1 | < 200 nM | 4700 nM | > 75% | 2.8 mg/kg | 1.3 mg/kg | > 100000 nM | –
7 | C[C@]1(O)CCC[C@H]1Oc1ncc(C(F)(F)F)cc1-c1ccc(S(C)(=O)=O)cc1 | – | – | > 75% | 0.4 mg/kg | 1.6 mg/kg | > 100000 nM | Cmax [10]: 9 µM; half-life [11]: ≤ 4 h
8 | CS(=O)(=O)c1ccc(-c2cc(Br)sc2-c2ccc(F)cc2)cc1 [DUP-697] | – | – | – | 1.3 mg/kg | – | – | –
9 | C[C@H](Oc1ncc(C(F)(F)F)cc1-c1ccc(S(C)(=O)=O)cc1)C(C)(C)O | < 200 nM | 460 nM | > 75% | 2.2 mg/kg | 0.8 mg/kg | > 100000 nM | –
10 | CS(=O)(=O)c1ccc(-c2cc(C(F)(F)F)cnc2N2CCCC(CO)C2)cc1 (stereo not drawn) | < 200 nM | 800 nM | > 75% | 1.4 mg/kg | 0.5 mg/kg | 41000 nM | half-life [12]: < 2 h
11 | CC(C)(O)CSc1ncc(C(F)(F)F)cc1-c1ccc(S(C)(=O)=O)cc1 | – | – | > 75% | 1.5 mg/kg | 0.5 mg/kg | – | half-life [12]: > 12 h
12 | C[C@H](CO)Sc1ncc(C(F)(F)F)cc1-c1ccc(S(C)(=O)=O)cc1 | < 200 nM | 140 nM | > 75% | 0.3 mg/kg | 0.3 mg/kg | 29000 nM | ED50 (Rattus norvegicus [13]): 0.65 mg/kg; half-life [14]: < 2 h
13 | CS(=O)(=O)c1ccc(-c2cc(C(F)(F)F)cnc2OCC(F)(F)F)cc1 | < 200 nM | 500 nM | – | 2.4 mg/kg | – | > 100000 nM | Cmax [15]: 2.4 µM
14 | COc1ccc2c(c1)c(CC(=O)O)c(C)n2C(=O)c1ccc(Cl)cc1 [INDOMETHACIN] | – | – | – | 2 mg/kg | 1.1 mg/kg | – | ED50 (Rattus norvegicus [13]): 1.5 mg/kg
